Experimental data as given in ChEMBL document CHEMBL1201862, “PubChem BioAssay data set” (2004).
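Compound exposure: 48 hours, 5 concentrations, 96-well plates. Abbreviation: GI50, concentration required for 50% inhibition of growth.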 Active and inactive are the calls of the source. No stated cut-off is given here; in the data, active = GI50 up to about 1.1 µM and inactive = higher.

How the values were obtained:
Experiment in all cases: DTP human tumour cell line panel, 48 h
[1] = test system: OVCAR-8
[2] = test system: SF-268
[3] = test system: PC-3
[4] = test system: 786-0
[5] = test system: SW-620
[6] = test system: SK-MEL-5
[7] = test system: SF-295
[8] = test system: DU-145
[9] = test system: HCT-15
[10] = test system: OVCAR-5
[11] = test system: NCI/ADR-RES
[12] = test system: M14
[13] = test system: UACC-257
[14] = test system: SR
[15] = test system: K562
[16] = test system: COLO 205
[17] = test system: SK-MEL-2
[18] = test system: SK-MEL-28

SMILES | GI50 [1] | GI50 [2] | GI50 [3] | GI50 [4] | GI50 [5] | GI50 [6] | GI50 [7] | GI50 [8] | GI50 [9] | GI50 [10] | GI50 [11] | GI50 [12] | GI50 [13] | GI50 [14] | GI50 [15] | GI50 [16] | GI50 [17] | GI50 [18]
CCC(=O)OCc1ccc2oc(=O)c(C(=O)Oc3cncc(Cl)c3)cc2c1 | > 100 µM (inactive) | > 100 µM (inactive) | 46 µM (inactive) | 74.1 µM (inactive) | > 100 µM (inactive) | > 100 µM (inactive) | > 100 µM (inactive) | > 100 µM (inactive) | 44 µM | > 100 µM (inactive) | > 100 µM (inactive) | > 100 µM (inactive) | > 100 µM (inactive) | 20.8 µM (inactive) | 20.6 µM (inactive) | 71.6 µM (inactive) | > 100 µM (inactive) | > 100 µM (inactive)
Cc1ccc2[nH]c(=O)c(-c3cnc(O)nn3)c(O)c2c1 | > 100 µM (inactive) | > 100 µM (inactive) | 15.6 µM (inactive) | > 100 µM (inactive) | > 100 µM (inactive) | 11.8 µM (inactive) | 60.7 µM (inactive) | > 100 µM (inactive) | > 100 µM | > 100 µM (inactive) | > 100 µM (inactive) | > 100 µM (inactive) | 57.4 µM (inactive) | > 100 µM (inactive) | 1.8 µM (inactive) | > 100 µM (inactive) | 45 µM (inactive) | > 100 µM (inactive)
COC12CCCN1c1ccn(Cc3ccccc3)c(=O)c1C2=O (stereo not drawn) | > 100 µM (inactive) | > 100 µM (inactive) | > 100 µM (inactive) | > 100 µM (inactive) | > 100 µM (inactive) | > 100 µM (inactive) | > 100 µM (inactive) | > 100 µM (inactive) | > 100 µM | > 100 µM (inactive) | > 100 µM (inactive) | > 100 µM (inactive) | > 100 µM (inactive) | > 100 µM (inactive) | > 100 µM (inactive) | > 100 µM (inactive) | > 100 µM (inactive) | > 100 µM (inactive)
CC(=O)CCNc1ccc(-c2cc(-c3ccc(N(C)C)cc3)nc3ccc4ccccc4c23)cc1 | > 100 µM (inactive) | > 44.5 µM (inactive) | 13.2 µM (inactive) | 22.4 µM (inactive) | > 100 µM (inactive) | 59.8 µM (inactive) | > 59.4 µM (inactive) | > 57.5 µM (inactive) | 49.7 µM | > 100 µM (inactive) | 97.9 µM (inactive) | 32.4 µM (inactive) | > 100 µM (inactive) | 7.11 µM (inactive) | 19.6 µM (inactive) | 26.9 µM (inactive) | 51.1 µM (inactive) | 34.8 µM (inactive)
COC1C(=O)N(SC)C1c1ccccc1Cl (stereo not drawn) | 19.6 µM (inactive) | > 100 µM (inactive) | 86.7 µM (inactive) | 18.7 µM (inactive) | 21.4 µM (inactive) | 95.5 µM (inactive) | > 100 µM (inactive) | > 100 µM (inactive) | 22.3 µM | 17.8 µM (inactive) | 68.1 µM (inactive) | 28.1 µM (inactive) | > 100 µM (inactive) | 18.6 µM (inactive) | 25.9 µM (inactive) | 51.8 µM (inactive) | > 100 µM (inactive) | > 100 µM (inactive)
NC1=NC(c2ccc(Cl)cc2)N(c2ccc(S(=O)(=O)Nc3ncccn3)cc2)C(N)=N1 (stereo not drawn) | > 100 µM (inactive) | > 100 µM (inactive) | > 100 µM (inactive) | > 100 µM (inactive) | > 100 µM (inactive) | > 100 µM (inactive) | > 100 µM (inactive) | > 100 µM (inactive) | > 100 µM | > 100 µM (inactive) | > 100 µM (inactive) | > 100 µM (inactive) | > 100 µM (inactive) | > 100 µM (inactive) | > 100 µM (inactive) | > 100 µM (inactive) | > 100 µM (inactive) | > 100 µM (inactive)
